# Article PMC9863751, “Specific Binding of the α-Component of the Lantibiotic Lichenicidin to the Peptidoglycan Precursor Lipid II Predetermines Its Antimicrobial Activity” (International Journal of Molecular Sciences, 2023)
# Biological target: T1, Lchα (α-component of the lantibiotic lichenicidin) (Bacillus licheniformis, UniProt P86475)
# T1 construct: gene lchA1; mature post-translationally modified lantibiotic, 32 residues (leader removed; N-terminal 2-oxobutyryl, Abu3-Cys7 ring A, four (methyl)lanthionine rings); native purification from culture supernatant, 15N-labelled, no tag
# T1 sequence (P86475 43-74): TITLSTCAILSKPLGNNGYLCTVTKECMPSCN
# Experiment: NMR titration ([…]-HSQC, Asn32 signal intensity)
# Assay type: binding
# Conditions: read-out: Kapp
smiles,measurement,value
CC(=O)N[C@H]1[C@H](O[C@H]2[C@H](O[C@H](C)C(=O)N[C@@H](C)C(=O)N[C@H](CCC(=O)N[C@@H](CCCCN)C(=O)N[C@H](C)C(=O)N[C@H](C)C(=O)O)C(=O)O)[C@@H](NC(C)=O)[C@@H](OP(=O)(O)OP(=O)(O)OC/C=C(/C)CC/C=C(/C)CC/C=C(/C)CC/C=C(/C)CC/C=C(/C)CC/C=C(/C)CC/C=C(/C)CC/C=C(/C)CC/C=C(\C)CC/C=C(\C)CCC=C(C)C)O[C@@H]2CO)O[C@H](CO)[C@@H](O)[C@@H]1O [lipid II],Kd,~10 µM
